The values below come from US9221838B2, “Inhibitors of AKT activity” (ALMAC DISCOVERY LIMITED, priority 2009, dated 2015).

One may read the IC50 as the concentration at which inhibition is half-maximal.

Format in all cases: biochemical
The target of assay [1] is T1, AKT3 (Homo sapiens, UniProt Q9Y243).
T1 construct: purchased SignalChem
Briefly: AKT Kinase Assay (IMAP fluorescent polarisation) vs AKT3. The method, boiled down: (§1)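 Phosphorylation of FAM-Crosstide detected by IMAP binding and fluorescence polarisation (485/528 nm), with IC50 fitted from % inhibition versus vehicle. Compound was incubated 45 min with enzyme, then reacted 1 h at room temperature with ATP and peptide in Tris/MgCl2/DTT buffer. Dose response had fourteen half-log points.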

For assay [2], the target named is T2, AKT1 (Homo sapiens, UniProt P31749).
T2 construct: purchased SignalChem
T2 sequence (P31749 whole entry): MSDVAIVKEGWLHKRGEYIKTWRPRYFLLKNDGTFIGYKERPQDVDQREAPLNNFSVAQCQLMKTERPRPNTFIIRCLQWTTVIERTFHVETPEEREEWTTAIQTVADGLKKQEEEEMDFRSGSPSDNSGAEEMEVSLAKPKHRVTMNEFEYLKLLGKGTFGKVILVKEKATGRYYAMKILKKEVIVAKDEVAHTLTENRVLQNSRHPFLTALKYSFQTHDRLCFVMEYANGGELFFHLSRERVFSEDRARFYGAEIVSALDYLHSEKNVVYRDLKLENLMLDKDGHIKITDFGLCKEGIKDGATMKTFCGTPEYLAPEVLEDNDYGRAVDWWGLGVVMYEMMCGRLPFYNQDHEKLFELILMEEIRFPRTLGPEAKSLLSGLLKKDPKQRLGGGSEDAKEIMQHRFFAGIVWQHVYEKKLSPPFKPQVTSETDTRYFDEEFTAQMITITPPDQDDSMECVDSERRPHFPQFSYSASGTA
Put plainly: AKT Kinase Assay (IMAP fluorescent polarisation) vs AKT1. The method, boiled down:
as §1

The target of assay [3] is T3, AKT2 (Homo sapiens, UniProt P31751).
T3 construct: purchased SignalChem
T3 sequence (P31751 whole entry): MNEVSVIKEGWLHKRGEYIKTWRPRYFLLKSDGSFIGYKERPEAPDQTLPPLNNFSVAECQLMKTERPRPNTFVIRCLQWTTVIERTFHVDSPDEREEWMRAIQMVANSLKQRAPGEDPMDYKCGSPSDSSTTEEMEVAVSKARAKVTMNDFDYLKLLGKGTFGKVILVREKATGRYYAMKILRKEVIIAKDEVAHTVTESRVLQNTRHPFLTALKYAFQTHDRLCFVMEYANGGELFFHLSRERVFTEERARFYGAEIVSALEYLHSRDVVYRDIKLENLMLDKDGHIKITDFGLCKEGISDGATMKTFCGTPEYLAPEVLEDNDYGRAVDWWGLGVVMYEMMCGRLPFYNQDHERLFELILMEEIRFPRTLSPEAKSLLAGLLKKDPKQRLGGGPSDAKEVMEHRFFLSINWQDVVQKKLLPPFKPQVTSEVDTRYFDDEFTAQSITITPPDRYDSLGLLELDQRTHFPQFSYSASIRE
Put plainly: AKT Kinase Assay (IMAP fluorescent polarisation) vs AKT2. The gist of the method:
as §1

T1 sequence (Q9Y243 whole entry): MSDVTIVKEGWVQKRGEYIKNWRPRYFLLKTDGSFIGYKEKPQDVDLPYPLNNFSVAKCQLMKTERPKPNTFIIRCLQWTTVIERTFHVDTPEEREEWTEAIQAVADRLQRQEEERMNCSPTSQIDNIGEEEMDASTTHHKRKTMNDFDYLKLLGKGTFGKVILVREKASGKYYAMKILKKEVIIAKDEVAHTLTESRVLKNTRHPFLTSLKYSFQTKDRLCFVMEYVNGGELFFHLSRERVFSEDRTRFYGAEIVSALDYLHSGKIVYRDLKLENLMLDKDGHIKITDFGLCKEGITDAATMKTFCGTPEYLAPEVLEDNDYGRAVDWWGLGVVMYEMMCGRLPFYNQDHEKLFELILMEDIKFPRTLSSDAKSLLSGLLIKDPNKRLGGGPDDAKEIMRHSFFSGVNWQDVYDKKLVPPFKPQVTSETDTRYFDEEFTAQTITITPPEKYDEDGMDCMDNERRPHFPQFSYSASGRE

Turning to `Cc1nc2c(n1O)CCc1nc(-c3ccc(C4(N)CCC4)cc3)c(-c3ccccc3)cc1-2` [Example 14, 7-(4-(1-aminocyclobutyl)phenyl)-2-methyl-8-phenyl-4,5-dihydro-3H-imidazo[4,5-f]quinolin-3-ol], the figures for the IC50 in assay [1], in assay [2] and in assay [3] were 1 to 10 µM, 100 to 1000 nM and 1000 to 10000 nM, respectively.
Regarding `NC1(c2ccc(-c3nc4c(cc3-c3ccccc3)-c3ncncc3CC4)cc2)CCC1` [Example 16, 1-(4-(9-phenyl-5,6-dihydropyrido[2,3-h]quinazolin-8-yl)phenyl)-cyclobutanamine], the figures for the IC50 in assay [1], in assay [2] and in assay [3] were 1 to 10 µM, at most 100 nM and 100 to 1000 nM, respectively.
With `NC1(c2ccc(-c3nc4c(cc3-c3ccccc3)-n3cnnc3CO4)cc2)CCC1` [Example 39, 1-(4-(8-phenyl-4H-pyrido[2,3-b][1,2,4]triazolo[4,3-d][1,4]oxazin-7-yl)phenyl)cyclobutanamine], the IC50 was above 10 µM in assay [1], 100 to 1000 nM in assay [2] and 1000 to 10000 nM in assay [3].
The matching figures for `N#CCN1C(=O)COc2nc(-c3ccc(CN)cc3)c(-c3ccccc3)cc21` [Example 135, 2-(6-(4-(aminomethyl)phenyl)-2-oxo-7-phenyl-2,3-dihydro-1H-pyrido[2,3-b][1,4]oxazin-1-yl)acetonitrile]: 1 to 10 µM, 100 to 1000 nM and at most 100 nM.
With `N#CCN1CCOc2nc(-c3ccc(C4(N)CCC4)cc3)c(-c3ccccc3)cc21` [Example 43, 2-(6-(4-(1-aminocyclobutyl)phenyl)-7-phenyl-2,3-dihydro-1H-pyrido[2,3-b][1,4]oxazin-1-yl)acetonitrile], the IC50 in assay [1] was above 10 µM; in assay [2] it was 100 to 1000 nM; in assay [3] it was at most 100 nM.
Consider `N[C@]1(c2ccc(-c3nc4c(cc3-c3ccccc3)N(CC(F)(F)F)C(=O)CO4)cc2)C[C@H](O)C1` [Example 148, 6-(4-((1s,3s)-1-amino-3-hydroxycyclobutyl)phenyl)-7-phenyl-1-(2,2,2-trifluoroethyl)-1H-pyrido[2,3-b][1,4]oxazin-2(3H)-one], for which the IC50 in assay [1] was above 10 µM; in assay [2], 100 to 1000 nM; in assay [3], 100 to 1000 nM.
As to `CS(=O)(=O)N1CCOc2nc(-c3ccc(C4(N)CCC4)cc3)c(-c3ccccc3)cc21` [Example 70, 1-(4-(1-(methylsulfonyl)-7-phenyl-2,3-dihydro-1H-pyrido[2,3-b][1,4]oxazin-6-yl)phenyl)cyclobutanamine], the IC50 is above 10 µM in assay [1], 100 to 1000 nM in assay [2] and 100 to 1000 nM in assay [3].
`NC1(c2ccc(-c3nc4c(cc3-c3ccccc3)N(Cc3ncc[nH]3)C(=O)CO4)cc2)CCC1` [Example 42, 1-((1H-imidazol-2-yl)methyl)-6-(4-(1-aminocyclobutyl)phenyl)-7-phenyl-1H-pyrido[2,3-b][1,4]oxazin-2(3H)-one]: the IC50 in assay [1] was in the range of 1 to 10 µM; in assay [2], 1000 to 10000 nM; in assay [3] it was 100 to 1000 nM.
Consider `N#CCN1C(=O)COc2nc(-c3ccc(C4(N)CCC4)cc3)c(-c3ccccc3)cc21` [Example 33, 2-(6-(4-(1-aminocyclobutyl)phenyl)-2-oxo-7-phenyl-2,3-dihydro-1H-pyrido[2,3-b][1,4]oxazin-1-yl)acetonitrile], for which the IC50 in assay [1] is 0.1 to 1 µM; in assay [2] it was at most 100 nM; in assay [3], at most 100 nM.
Take `CN1CCOc2nc(-c3ccc(C4(N)CCC4)cc3)c(-c3ccccc3)cc21` [Example 40, 1-(4-(1-methyl-7-phenyl-2,3-dihydro-1H-pyrido[2,3-b][1,4]oxazin-6-yl)phenyl)cyclobutanamine]: the IC50 is above 10 µM in assay [1], 100 to 1000 nM in assay [2] and 1000 to 10000 nM in assay [3].
The matching figures for `COCCc1nnc2n1-c1cc(-c3ccccc3)c(-c3ccc(C4(N)CCC4)cc3)nc1OC2` [Example 121, 1-(4-(1-(2-methoxyethyl)-8-phenyl-4H-pyrido[2,3-b][1,2,4]triazolo[4,3-d][1,4]oxazin-7-yl)phenyl)cyclobutanamine]: 1 to 10 µM, 100 to 1000 nM and 1000 to 10000 nM.
Consider `CN1C(=O)COc2nc(-c3ccc(C4(N)CCC4)cc3)c(-c3cccnc3)cc21` [Example 124, 6-(4-(1-aminocyclobutyl)phenyl)-1-methyl-7-(pyridin-3-0)-1H-pyrido[2,3-b][1,4]oxazin-2(3H)-one], for which the IC50 was in the range of 1 to 10 µM in assay [1], 1000 to 10000 nM in assay [2] and 1000 to 10000 nM in assay [3].
As to `CS(=O)(=O)CN1C(=O)COc2nc(-c3ccc(C4(N)CCC4)cc3)c(-c3ccccc3)cc21` [Example 82, 6-(4-(1-aminocyclobutyl)phenyl)-1-(methylsulfonylmethyl)-7-phenyl-1H-pyrido[2,3-b][1,4]oxazin-2(3H)-one], the IC50 in assay [1] was 1 to 10 µM; in assay [2], 1000 to 10000 nM; in assay [3] it was at most 100 nM.
`NC1(c2ccc(-c3nc4c(cc3-c3ccccc3)N(Cc3ccccn3)C(=O)CO4)cc2)CCC1` [Example 56, 6-(4-(1-aminocyclobutyl)phenyl)-7-phenyl-1-(pyridin-2-ylmethyl)-1H-pyrido[2,3-b][1,4]oxazin-2(3H)-one]: the half-inhibitory concentration (IC50) lay within 0.1 to 1 µM in assay [1], 100 to 1000 nM in assay [2] and 100 to 1000 nM in assay [3].
For the compound `Nc1ncc2c(n1)-c1cc(-c3ccccc3)c(-c3ccc(C4(N)CCC4)cc3)nc1CC2` [Example 17], the results for the IC50 in assay [1], in assay [2] and in assay [3] were 1 to 10 µM, 100 to 1000 nM and 1000 to 10000 nM, respectively.
The matching figures for `NC1(c2ccc(-c3nc4c(cc3-c3ccccc3)C(=O)CCC4)cc2)CCC1` [Example 1, 2-(4-(1-aminocyclobutyl)phenyl)-3-phenyl-7,8-dihydroquinolin-5(6H)-one]: above 10 µM, 1000 to 10000 nM and 1000 to 10000 nM.
In the same order, the values of `CN1C(=O)CCNc2nc(-c3ccc(C4(N)CCC4)cc3)c(-c3ccccc3)cc21` [Example 114, 7-(4-(1-aminocyclobutyl)phenyl)-1-methyl-8-phenyl-4,5-dihydro-1H-pyrido[2,3-b][1,4]diazepin-2(3H)-one] are above 10 µM, 1000 to 10000 nM and 1000 to 10000 nM.
Turning to `NC1(c2ccc(-c3nc4c(cc3-c3ccccc3)C(=O)NCC4)cc2)CCC1` [Example 22, 2-(4-(1-aminocyclobutyl)phenyl)-3-phenyl-7,8-dihydro-1,6-naphthyridin-5(6H)-one], the IC50 in assay [1] is above 10 µM; in assay [2] it was at most 100 nM; in assay [3], 1000 to 10000 nM.
In the same order, the values of `N#CCCN1C(=O)COc2nc(-c3ccc(C4(N)CCC4)cc3)c(-c3ccccc3)cc21` [Example 62, 3-(6-(4-(1-aminocyclobutyl)phenyl)-2-oxo-7-phenyl-2,3-dihydro-1H-Pyrido[2,3-b][1,4]oxazin-1-yl)propanenitrile] are 1 to 10 µM, 1000 to 10000 nM and 100 to 1000 nM.
The matching figures for `CN1C(=O)COc2nc(-c3ccc(C4(N)CCC4)cc3)c(-c3cccs3)cc21` [Example 126, 6-(4-(1-aminocyclobutyl)phenyl)-1-methyl-7-(thiophen-2-yl)-1H-pyrido[2,3-b][1,4]oxazin-2(3H)-one]: 1 to 10 µM, 100 to 1000 nM and 100 to 1000 nM.
As to `CC1(C)Cc2nc(-c3ccc(C4(N)CCC4)cc3)c(-c3ccccc3)cc2-c2n[nH]cc21` [Example 19, 1-(4-(4,4-dimethyl-8-phenyl-4,5-dihydro-2H-pyrazolo[3,4-f]quinolin-7-yl)phenyl)cyclobutanamine], the IC50 in assay [1] was above 10 µM; in assay [2] it was 100 to 1000 nM; in assay [3] it was 100 to 1000 nM.
Consider `C[C@H]1Oc2nc(-c3ccc(C4(N)CCC4)cc3)c(-c3ccccc3)cc2N(CC#N)C1=O` [Example 93, (R)-2-(6-(4-(1-aminocyclobutyl)phenyl)-3-methyl-2-oxo-7-phenyl-2,3-dihydro-1H-pyrido[2,3-b][1,4]oxazin-1-yl)acetonitrile], for which the IC50 is 1 to 10 µM in assay [1], at most 100 nM in assay [2] and at most 100 nM in assay [3].
As for `CN(C)c1nnc2n1-c1cc(-c3ccccc3)c(-c3ccc(C4(N)CCC4)cc3)nc1OC2` [Example 116, 7-(4-(1-aminocyclobutyl)phenyl)-N,N-dimethyl-8-phenyl-4H-pyrido[2,3-b][1,2,4]triazolo[4,3-d][1,4]oxazin-1-amine], the IC50 lay within 1 to 10 µM in assay [1], 1000 to 10000 nM in assay [2] and 1000 to 10000 nM in assay [3].
In the case of `NC1(c2ccc(-c3nc4c(cc3-c3ccccc3)-c3n[nH]c(O)c3CC4)cc2)CCC1` [Example 7, 7-(4-(1-aminocyclobutyl)phenyl)-8-phenyl-4,5-dihydro-2H-pyrazolo[3,4f]quinolin-3-ol], the results for the IC50 in assay [1], in assay [2] and in assay [3] were above 10 µM, at most 100 nM and 1000 to 10000 nM, respectively.
For `CN1c2cc(-c3ccccc3)c(-c3ccc(C4(N)CCC4)cc3)nc2OCS1(=O)=O` [Example 73, 6-(4-(1-aminocyclobutyl)phenyl)-1-methyl-7-phenyl-1H-pyrido[3,2-e][1,3,4]oxathiazine 2,2-dioxide], the results for the IC50 in assay [1], in assay [2] and in assay [3] were above 10 µM, 1000 to 10000 nM and 100 to 1000 nM, respectively.
The matching figures for `NC1(c2ccc(-c3nc4c(cc3-c3ccccc3)N(CCO)C(=O)CO4)cc2)CCC1` [Example 68, 6-(4-(1-aminocyclobutyl)phenyl)-1-(2-hydroxyethyl)-7-phenyl-1H-pyrido[2,3-b][1,4]oxazin-2(3H)-one]: above 10 µM, 100 to 1000 nM and 100 to 1000 nM.
For the compound `NC1(c2ccc(-c3nc4c(cc3-c3ccccc3)-c3n[nH]cc3CCC4)cc2)CCC1` [Example 21, 1-(4-(9-phenyl-2,4,5,6-tetrahydropyrazolo[3′,4′:3,4]cyclohepta[1,2-b]pyridin-8-yl)phenyl)cyclobutanamine], the IC50 in assay [1] is above 10 µM; in assay [2], 100 to 1000 nM; in assay [3] it was 1000 to 10000 nM.
